Where only a bound is given, the exact number is not on record here.

One may read the IC50 as the concentration at which inhibition is half-maximal.

The nature of series [1]: Cytotoxicity against LPS-stimulated mouse BV2 cells assessed as cell viability at 20 uM after 24 hrs by MTT assay relative to control. Format: cell-based, BV-2. The settings on record: read-out: Activity. (In general: Formazan colour is commonly taken as a measure of viable cells.)
For series [2], the system named is BV-2. Description: Anti-inflammatory activity in mouse BV2 cells assessed as inhibition of LPS-induced COX2 expression after 24 hrs by Western blot analysis. Format: functional, cell-based. On the technique in general: In western blotting, separated proteins are transferred to a membrane and probed.
The subject of series [3] is BV-2. Description: Anti-inflammatory activity in mouse BV2 cells assessed as inhibition of LPS-induced nitric oxide production after 24 hrs by griess assay. Format: functional, cell-based. The settings on record: for IC50: BV-2, 24 h. A general note: Nitrite, measured by Griess reagent, commonly stands in for NO production.
In series [4] the test system is BV-2. Kind of series: Anti-inflammatory activity in mouse BV2 cells assessed as inhibition of LPS-induced iNOS expression after 24 hrs by Western blot analysis. Format: functional, cell-based.
The test system of series [5] is BV-2. Kind of series: Cytotoxicity against LPS-stimulated mouse BV2 cells assessed as reduction in cell viability at <10 uM after 24 hrs by MTT assay. Format: cell-based. The settings on record: bv-2, 24 h.
Series [6] has as its system BV-2. Description: Anti-inflammatory activity in mouse BV2 cells assessed as inhibition of LPS-induced nitric oxide production pretreated followed by LPS-stimulation by griess assay. Format: functional, cell-based.

Take `C=CCc1ccc(O)c(-c2ccn(CC=C)n2)c1`: the viability at 24 h, 20 µM in series [1] was 59.9%. Further, the inhibition entry in the series with BV-2 [2], with BV-2 [3] and in the series with BV-2 [4] was “Dose-dependent effect” in each case. Also, the IC50 with BV-2 [3] was found to be 1.2 µM. Also, the Activity entry in the series on BV-2 [5] was “Non-Toxic”.

As to `C=CCc1ccc(O)c(-c2cc(CO)on2)c1`, the viability at 24 h, 20 µM in series [1] came out at 126%. Besides, in the series on BV-2 [3], the IC50 is > 200 µM.

In the case of `C=CCOCc1cc(-c2cc(CC=C)ccc2OC)no1`, the viability at 24 h, 20 µM in series [1] is 141%. In addition, the IC50 in the series with BV-2 [3] came out at 28.7 µM.

As for `COc1ccc(Br)cc1-c1cc(CO)on1`, in series [1], the viability at 24 h, 20 µM amounted to 94.1%. Besides, in the series on BV-2 [3], the IC50 was > 200 µM.

In the case of `C=CCn1ccc(-c2cc(C=C)ccc2O)n1`, the viability at 24 h, 20 µM in series [1] was determined as 105%. Further, the IC50 in the series with BV-2 [3] was 30.5 µM.

Turning to `C=CCc1ccc(O)c(-c2ccc(OC)c(CC=C)c2)c1` [METHYLHONOKIOL], the viability at 24 h, 20 µM in series [1] was determined as 115%. Besides, the IC50 in the series on BV-2 [3] is 52.3 µM.

For the molecule `C=CCc1ccc(OC)c(-c2cc(CN3CCN(C(=O)OC(C)(C)C)CC3)on2)c1`, in series [1], the viability at 24 h, 20 µM stood at 117%. The half-maximal inhibitory concentration (IC50) in the series with BV-2 [3] was 76.9 µM.

Regarding `C=CCc1ccc(OC)c(-c2ccn(Cc3ccccc3)n2)c1`, the viability at 24 h, 20 µM in series [1] was 112%. Also, in the series on BV-2 [3], the concentration for half-maximal inhibition (IC50) came out at 36 µM.

Consider `C=CCc1ccc(OC)c(-c2ccn(CC=C)n2)c1`, for which the viability at 24 h, 20 µM in series [1] turned out to be 109%. The IC50 in the series on BV-2 [3] is > 200 µM.

As for `C=CCc1ccc(OC)c(-c2cc(COCc3ccccc3)on2)c1`, the viability at 24 h, 20 µM in series [1] stood at 145%. Also, in the series on BV-2 [3], the IC50 is > 200 µM.

With `C=CCc1ccc(OC)c(-c2cc(CO)on2)c1`, the viability at 24 h, 20 µM in series [1] stood at 120%. Besides, the IC50 in the series with BV-2 [3] is > 200 µM.

`Oc1ccc(Br)cc1-c1ccn(Cc2ccccc2)n1`: the viability at 24 h, 20 µM in series [1] came out at 107%. For the same molecule, the IC50 with BV-2 [3] is > 200 µM.

Take `CCCc1ccc(O)c(-c2ccn(-c3ccccc3)n2)c1`: the viability at 24 h, 20 µM in series [1] was found to be 125%. Besides, the IC50 in the series with BV-2 [3] amounted to 109 µM.

For `C=CCn1ccc(-c2cc(Br)ccc2OC)n1`, the viability at 24 h, 20 µM in series [1] is 92.2%. Also, the IC50 in the series with BV-2 [3] is > 200 µM.

As for `C=CCc1ccc(OC)c(-c2cc(CCC)on2)c1`, the viability at 24 h, 20 µM in series [1] came out at 98.2%. Further, in the series with BV-2 [3], the IC50 was > 200 µM.

With `C=CCc1ccc(OC)c(-c2ccn(-c3ccccc3)n2)c1`, the viability at 24 h, 20 µM in series [1] was 68.6%. Besides, the inhibition result in the series with BV-2 [2], with BV-2 [3] and with BV-2 [4] was “Dose-dependent effect” each time. Also, the IC50 with BV-2 [3] came to 8.92 µM. In addition, the Activity entry in the series on BV-2 [5] is listed as “Non-Toxic”.

Turning to `C=CCc1ccc(O)c(-c2ccn(-c3ccccc3)n2)c1`, in series [1], the viability at 24 h, 20 µM amounted to 125%. In the series with BV-2 [3], the IC50 is 73 µM.

Take `COc1ccc(Br)cc1-c1ccn(-c2ccccc2)n1`: the viability at 24 h, 20 µM in series [1] was determined as 124%. Further, the IC50 with BV-2 [3] was > 200 µM.

Turning to `C=CCOCc1cc(-c2cc(Br)ccc2OC)no1`, the viability at 24 h, 20 µM in series [1] amounted to 94.6%. Also, in the series with BV-2 [3], the IC50 stood at 90.4 µM.

In the case of `C=CCc1ccc(O)c(-c2cc(CCC)on2)c1`, the viability at 24 h, 20 µM in series [1] was 93.3%. In addition, the IC50 with BV-2 [3] is > 200 µM.

Turning to `CCCc1cc(-c2cc(Br)ccc2OC)no1`, in series [1], the viability at 24 h, 20 µM came to 97.9%. In addition, the IC50 with BV-2 [3] was > 200 µM.

As to `C=CCc1ccc(OC)c(-c2cc(COCC(=O)OCC)on2)c1`, the viability at 24 h, 20 µM in series [1] is 126%. The IC50 in the series on BV-2 [3] was 25.9 µM.

With `CCCn1ccc(-c2cc(CC)ccc2O)n1`, the viability at 24 h, 20 µM in series [1] was 109%. The IC50 in the series on BV-2 [3] is > 200 µM.

For `COc1ccc(Br)cc1-c1cc(COCc2ccccc2)on1`, in series [1], the viability at 24 h, 20 µM came out at 104%. The IC50 in the series with BV-2 [3] is > 200 µM.

Turning to `CNC(=N)NCCC[C@H](N)C(=O)O` [TILARGININE], the viability at 24 h, 20 µM in series [1] came out at 94.4%. The half-inhibitory concentration (IC50) in the series on BV-2 [3] amounted to 26.6 µM.

Take `CCCCC/C=C/C(=O)CCc1ccc(O)c(OC)c1` [SHOGAOL]: the IC50 with BV-2 [6] came to 5.59 µM.

On to `C=CCc1ccc(OC)c(-c2cc(CN3CCN(CC=C)CC3)on2)c1`, for which, in series [1], the viability at 24 h, 20 µM came to 101%. The concentration for half-maximal inhibition (IC50) with BV-2 [3] came to 111 µM.

In the case of `COc1ccc(Br)cc1-c1ccn(Cc2ccccc2)n1`, in series [1], the viability at 24 h, 20 µM came to 122%. The concentration for half-maximal inhibition (IC50) in the series with BV-2 [3] was > 200 µM.

Consider `CCCc1ccc(O)c(-c2ccn(CCC)n2)c1`, for which the viability at 24 h, 20 µM in series [1] was 129%. For the same molecule, the IC50 with BV-2 [3] came to 91.3 µM.

As for `C=CCc1ccc(OC)c(-c2cc(CN3CCN(Cc4ccccc4)CC3)on2)c1`, the viability at 24 h, 20 µM in series [1] amounted to 98.6%. In addition, the IC50 with BV-2 [3] is > 200 µM.

Take `C=CCc1ccc(OC)c(-c2cc(CN3CCN(CC(=O)OCC)CC3)on2)c1`: in series [1], the viability at 24 h, 20 µM came to 93.2%. Also, the IC50 in the series on BV-2 [3] was > 200 µM.

`CCCc1ccc(O)c(-c2cc[nH]n2)c1`: the viability at 24 h, 20 µM in series [1] turned out to be 94.7%. Also, in the series on BV-2 [3], the IC50 amounted to 60.2 µM.

Consider `COc1ccc(Br)cc1-c1cc(CN2CCN(C(=O)OC(C)(C)C)CC2)on1`, for which, in series [1], the viability at 24 h, 20 µM amounted to 100%. Moreover, in the series with BV-2 [3], the IC50 was > 200 µM.

Consider `CCCc1ccc(O)c(-c2ccn(Cc3ccccc3)n2)c1`, for which the viability at 24 h, 20 µM in series [1] is 126%. Also, the IC50 in the series on BV-2 [3] is 116 µM.

With `CCOC(=O)COCc1cc(-c2cc(Br)ccc2OC)no1`, in series [1], the viability at 24 h, 20 µM was 122%. Besides, in the series on BV-2 [3], the IC50 is > 200 µM.

Take `C=CCn1ccc(-c2cc(Br)ccc2O)n1`: the viability at 24 h, 20 µM in series [1] was determined as 113%. Moreover, in the series on BV-2 [3], the IC50 is 112 µM.

On to `C=CCc1ccc(O)c(-c2ccn(Cc3ccccc3)n2)c1`, for which the viability at 24 h, 20 µM in series [1] came to 99.5%. Besides, the IC50 in the series on BV-2 [3] turned out to be 92.5 µM.

For the molecule `Oc1ccc(Br)cc1-c1ccn(-c2ccccc2)n1`, the viability at 24 h, 20 µM in series [1] was found to be 109%. In addition, the 50% inhibitory concentration (IC50) in the series on BV-2 [3] is > 200 µM.

With `C=CCc1ccc(O)c(-c2ccc(O)c(CC=C)c2)c1` [HONOKIOL], the viability at 24 h, 20 µM in series [1] worked out at 118%. For the same molecule, the IC50 in the series on BV-2 [3] worked out at 17 µM.
